Source: patent US20260327243A1, “SPIRO-HETEROCYCLIC INHIBITORS OF KRAS G12C MUTANT PROTEINS AND USES THEREOF” (AMGEN INC., priority 2023, published 2026)

Each compound was assayed against KRAS^G12C (Homo sapiens, UniProt P01116, C118A/G12C) (assay: Coupled Nucleotide Exchange Assay). Conditions: GDP-bound KRAS (aa 1-169) G12C/C118A; 2 h compound pre-incubation; SOS-mediated exchange, 30 min; cRAF binding (AlphaLISA).
Sequence of KRAS^G12C (P01116 1-169 isoform P01116-2 G12C/C118A): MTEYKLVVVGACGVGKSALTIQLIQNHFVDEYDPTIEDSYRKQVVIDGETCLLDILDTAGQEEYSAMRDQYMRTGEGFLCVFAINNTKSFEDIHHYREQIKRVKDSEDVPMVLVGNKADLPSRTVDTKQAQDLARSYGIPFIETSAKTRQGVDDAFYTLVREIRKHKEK
Assay type: biochemical
Description: The KRAS^G12C coupled nucleotide exchange assay allows for the screening and profiling of KRAS^G12C antagonists/inhibitors by monitoring the binding of an effector protein (e.g., a Ras binding domain of Raf1, RBD-cRaf) to KRAS^G12C. Purified GDP-bound KRAS protein (aa 1-169), containing both G12C and C118A amino acid substitutions and an N-terminal His-tag, was pre-incubated in assay buffer (25 mM HEPES pH 7.4, 10 mM MgCl2, 0.01% Triton X-100, either with or without 0.1% BSA) with serially diluted compound for 2 h. For all subsequent steps, BSA was omitted and DTT was added to the reaction buffer at a final concentration of 1 mM. Following compound pre-incubation, purified SOS protein (aa 564-1049) and GTP (Roche 10106399001) were added to the assay wells and incubated for an additional 30 min. To determine the extent of inhibition of SOS-mediated nucleotide exchange, purified GST-tagged cRAF (aa 1-149), nickel chelate AlphaLISA acceptor beads (PerkinElmer AL108R), and AlphaScreen glutathione donor beads (PerkinElmer 6765302) were added to the assay wells and incubated for 5-30 min. The assay plates were then read on a plate reader measuring luminescence signal. Signal intensity of compound-containing wells were normalized to DMSO control, and data were analyzed using a 4-parameter logistic model to calculate IC50 values.
For `C=CC(=O)N1CCN(C2CN(c3cc(N4CCC5(CC4)CC(C#N)CO5)nc(C(F)(F)F)c3C#N)C2)CC1` (stereo not shown) [Compound 3-030, 8-(4-(3-(4-acryloylpiperazin-1-yl)azetidin-1-yl)-5-cyano-6-(trifluoromethyl)pyridin-2-yl)-1-oxa-8-azaspiro[4.5]decane-3-carbonitrile], the IC50 was 9.59 µM.
`C=CC(=O)N1CCN(C2CN(c3cc(N4CCC5(CC4)OCCC5=O)nc(C(F)(F)F)c3C#N)C2)CC1` [Compound 3-031, 4-(3-(4-acryloylpiperazin-1-yl)azetidin-1-yl)-6-(4-oxo-1-oxa-8-azaspiro[4.5]decan-8-yl)-2-(trifluoromethyl)nicotinonitrile] was tested, and the IC50 was 9.25 µM.
In the case of `C=CC(=O)N1CCN(C2CN(c3cc(N4CCC5(CC4)OC(=O)NC5(C)C)nc(C(F)(F)F)c3C#N)C2)CC1` [Compound 3-032, 4-(3-(4-acryloylpiperazin-1-yl)azetidin-1-yl)-6-(4,4-dimethyl-2-oxo-1-oxa-3,8-diazaspiro[4.5]decan-8-yl)-2-(trifluoromethyl)nicotinonitrile], the IC50 is reported as 2.75 µM.
`C=CC(=O)N1CCN(C2CN(c3cc(N4CCC5(CC4)CN(CC)C(=O)O5)nc(C(F)(F)F)c3C#N)C2)CC1` [Compound 3-033, 4-(3-(4-acryloylpiperazin-1-yl)azetidin-1-yl)-6-(3-ethyl-2-oxo-1-oxa-3,8-diazaspiro[4.5]decan-8-yl)-2-(trifluoromethyl)nicotinonitrile] was tested, and the IC50 was 6.19 µM.
In the case of `C=CC(=O)N1CCN(C2CN(c3cc(N4CCC5(CC4)OC(=O)NC54CCC4)nc(C(F)(F)F)c3C#N)C2)CC1` [Compound 3-034, 4-(3-(4-acryloylpiperazin-1-yl)azetidin-1-yl)-6-(12-oxo-11-oxa-8,13-diazadispiro[3.0.55.34]tridecan-8-yl)-2-(trifluoromethyl)nicotinonitrile], the IC50 is reported as 2.45 µM.
`C=CC(=O)N1CCN(C2CN(c3cc(N4CCC5(CCCCO5)CC4)nc(C(F)(F)F)c3C#N)C2)CC1` [Compound 3-035, 4-(3-(4-acryloylpiperazin-1-yl)azetidin-1-yl)-6-(1-oxa-9-azaspiro[5.5]undecan-9-yl)-2-(trifluoromethyl)nicotinonitrile] showed an IC50 of 3.58 µM.
`C=CC(=O)N1CCN(C2CN(c3cc(N4CCC5(CC4)CC5(F)F)nc(C(F)(F)F)c3C#N)C2)CC1` [Compound 3-036, 4-(3-(4-acryloylpiperazin-1-yl)azetidin-1-yl)-6-(1,1-difluoro-6-azaspiro[2.5]octan-6-yl)-2-(trifluoromethyl)nicotinonitrile] showed an IC50 of 6.7 µM.
In the case of `C=CC(=O)N1CCN(C2CN(c3cc(N4CCC5(CC4)CC(F)(F)C5)nc(C(F)(F)F)c3C#N)C2)CC1` [Compound 3-037, 4-(3-(4-acryloylpiperazin-1-yl)azetidin-1-yl)-6-(2,2-difluoro-7-azaspiro[3.5]nonan-7-yl)-2-(trifluoromethyl)nicotinonitrile], the IC50 is reported as 3.3 µM.
`C=CC(=O)N1CCN(C2CN(c3cc(N4CCC5(CC4)CC5)nc(C(F)(F)F)c3C#N)C2)CC1` [Compound 3-038, 4-(3-(4-acryloylpiperazin-1-yl)azetidin-1-yl)-6-(6-azaspiro[2.5]octan-6-yl)-2-(trifluoromethyl)nicotinonitrile] gave an IC50 of 5.7 µM.
With `C=CC(=O)N1CCN(C2CN(c3cc(N4CCC5(CC4)OC(C)(C)c4ccccc45)nc(C(F)(F)F)c3C#N)C2)CC1` [Compound 3-040, 4-(3-(4-acryloylpiperazin-1-yl)azetidin-1-yl)-6-(3,3-dimethyl-3H-spiro[isobenzofuran-1,4′-piperidin]-1′-yl)-2-(trifluoromethyl)nicotinonitrile] the IC50 was 2.84 µM.
`C=CC(=O)N1CCN(C2CN(c3cc(N4CCC5(CC4)OCc4cc(Cl)ccc45)nc(C(F)(F)F)c3C#N)C2)CC1` [Compound 3-041, 4-(3-(4-acryloylpiperazin-1-yl)azetidin-1-yl)-6-(5-chloro-3H-spiro[isobenzofuran-1,4′-piperidin]-1′-yl)-2-(trifluoromethyl)nicotinonitrile] gave an IC50 greater than 6.25 µM.
With `C=CC(=O)N1CCN(C2CN(c3cc(N4CCC5(CC4)OCC4CC45)nc(C(F)(F)F)c3C#N)C2)CC1` (stereo not shown) [Compound 3-042, 4-(3-(4-acryloylpiperazin-1-yl)azetidin-1-yl)-6-(3-oxaspiro[bicyclo[3.1.0]hexane-2,4′-piperidin]-1′-yl)-2-(trifluoromethyl)nicotinonitrile] the IC50 was 5.12 µM.
In the case of `C=CC(=O)N1CCN(C2CN(c3cc(N4CCC5(CC4)CC(F)(F)CO5)nc(C(F)(F)F)c3C#N)C2)CC1` [Compound 3-044, 4-(3-(4-acryloylpiperazin-1-yl)azetidin-1-yl)-6-(3,3-difluoro-1-oxa-8-azaspiro[4.5]decan-8-yl)-2-(trifluoromethyl)nicotinonitrile], the IC50 is reported as 3.32 µM.
With `C=CC(=O)N1CCN(C2CN(c3cc(N4CCC5(CC4)CC(C)(C)CO5)nc(C(F)(F)F)c3C#N)C2)CC1` [Compound 3-045, 4-(3-(4-acryloylpiperazin-1-yl)azetidin-1-yl)-6-(3,3-dimethyl-1-oxa-8-azaspiro[4.5]decan-8-yl)-2-(trifluoromethyl)nicotinonitrile] the IC50 was 6.35 µM.
`C=CC(=O)N1CCN(C2CN(c3cc(N4CCC5(CC4)OCc4cnn(C)c45)nc(C(F)(F)F)n3)C2)CC1` [Compound 3-047, 1-(4-(1-(6-(1-methyl-1,4-dihydrospiro[furo[3,4-c]pyrazole-6,4′-piperidin]-1′-yl)-2-(trifluoromethyl)pyrimidin-4-yl)azetidin-3-yl)piperazin-1-yl)prop-2-en-1-one] was tested, and the IC50 was 2.69 µM.
`C=CC(=O)N1CCN(C2CN(c3cc(N4CCC5(CC4)CCN(C4COC4)C5)nc(C(F)(F)F)c3C#N)C2)CC1` [Compound 3-048, 4-(3-(4-acryloylpiperazin-1-yl)azetidin-1-yl)-6-(2-(oxetan-3-yl)-2,8-diazaspiro[4.5]decan-8-yl)-2-(trifluoromethyl)nicotinonitrile] showed an IC50 of 2.29 µM.
With `C=CC(=O)N1CCN([C@@H]2CN(c3cc(N4CCC5(CC4)OCC=C5C)nc(C(F)F)n3)[C@@H]2C)CC1` [Compound 3-050, 1-(4-((2R,3R)-1-(2-(Difluoromethyl)-6-(4-methyl1-oxa-8-azaspiro[4.5]dec3-en-8-yl)pyrimidin-4-yl)-2-methylazetidin-3-yl)piperazin-1-yl)prop2-en-1-one] the IC50 was 0.825 µM.
With `C=CC(=O)N1CCN([C@@H]2CN(c3cc(N4CCC5(CC4)C(C)=CCN5C)nc(C(F)(F)F)n3)[C@@H]2C)CC1` [Compound 3-055, 1-(4-((2R,3R)-1-(6-(1,4-Dimethyl-1,8-diazaspiro[4.5]dec-3-en-8-yl)-2-(trifluoromethyl)pyrimidin-4-yl)-2-methylazetidin-3-yl)piperazin-1-yl)prop-2-en1-one] the IC50 was 1.32 µM.
In the case of `C=CC(=O)N1CCN(C2CN(c3cc(N4CCC5(CCCO5)[C@@H](CO)C4)nc(C(F)(F)F)c3C#N)C2)CC1` (stereo partly drawn) [Compound 3-062-2, 4-(3-(4-acryloylpiperazin-1-yl)azetidin-1-yl)-6-((6R)-6-(hydroxymethyl)-1-oxa-8-azaspiro[4.5]decan-8-yl)-2-(trifluoromethyl)nicotinonitrile], the IC50 is reported as 6.2 µM.
In the case of `C=CC(=O)N1CCN(C2CN(c3cc(N4CCC5(CCc6ccccc65)CC4)nc(C(F)(F)F)n3)C2)CC1` [Compound 3-063, 1-(4-(1-(6-(2,3-Dihydrospiro[indene-1,4′-piperidin]-1′-yl)-2-(trifluoromethyl)pyrimidin-4-yl)azetidin-3-yl)piperazin-1-yl) prop-2-en-1-one], the IC50 is reported as 8.24 µM.
`C=CC(=O)N1CCN(C2CN(c3cc(N4CCC5(CC4)OCCc4ccsc45)nc(C(F)(F)F)n3)C2)CC1` [Compound 3-064, 1-(4-(1-(6-(4′,5′-dihydrospiro[piperidine-4,7′-thieno[2,3-c]pyran]-1-yl)-2-(trifluoromethyl)pyrimidin-4-yl)azetidin-3-yl)piperazin-1-yl)prop-2-en-1-one] was tested, and the IC50 was 5.7 µM.
`C=CC(=O)N1CCN(C2CN(c3cc(N4CCC5(CC4)OC(C)C=C5Cl)nc(C(F)(F)F)c3C#N)C2)CC1` (stereo not shown) [Compound 3-065, 4-(3-(4-Acryloylpiperazin-1-yl)azetidin-1-yl)-6-(4-chloro-2-methyl-1-oxa-8-azaspiro[4.5]dec-3-en-8-yl)-2-(trifluoromethyl)nicotinonitrile] was tested, and the IC50 was 0.752 µM.
`C=CC(=O)N1CCN(C2CN(c3cc(N4CCC5(C=CC(C)O5)CC4)nc(C(F)(F)F)c3C#N)C2)CC1` (stereo not shown) [Compound 3-066, 4-(3-(4-acryloylpiperazin-1-yl)azetidin-1-yl)-6-(2-methyl-1-oxa-8-azaspiro[4.5]dec-3-en-8-yl)-2-(trifluoromethyl)nicotinonitrile] was tested, and the IC50 was 0.55 µM.
With `C=CC(=O)N1CCN(C2CN(c3cc(N4CCC5(C=C[C@@H](C)O5)CC4)nc(C(F)(F)F)c3C#N)C2)CC1` [Compound 3-068-1, (R)-4-(3-(4-acryloylpiperazin-1-yl)azetidin-1-yl)-6-(2-methyl-1-oxa-8-azaspiro[4.5]dec-3-en-8-yl)-2-(trifluoromethyl)nicotinonitrile] the IC50 was 1.28 µM.
`C=CC(=O)N1CCN(C2CN(c3cc(N4CCC5(C=C[C@H](C)O5)CC4)nc(C(F)(F)F)c3C#N)C2)CC1` [Compound 3-068-2, (S)-4-(3-(4-acryloylpiperazin-1-yl)azetidin-1-yl)-6-(2-methyl-1-oxa-8-azaspiro[4.5]dec-3-en-8-yl)-2-(trifluoromethyl)nicotinonitrile] gave an IC50 of 1.54 µM.
